Reference: ChEMBL document CHEMBL1201862, “PubChem BioAssay data set” (2004)
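Where inhibition never reached the appropriate level, the endpoint shown equals the highest concentration tested. Otherwise, values were interpolated linearly from a five-concentration, 48-hour dose response in 96-well plates. Here, GI50 denotes the concentration required for 50% inhibition of growth.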 Activity calls are given as the source filed them. Cut-off read from the data, not from the text of the source: active = GI50 up to about 1.1 µM and inactive = higher.

What was measured:
Experiment in all cases: DTP human tumour cell line panel, 48 h
UO-31 = system: UO-31
Malme-3M = system: Malme-3M
COLO 205 = system: COLO 205
ACHN = system: ACHN
SK-MEL-28 = system: SK-MEL-28
HOP-18 = system: HOP-18
786-0 = system: 786-0
RPMI-8226 = system: RPMI-8226
A549 = system: A549
SN12C = system: SN12C
A498 = system: A498
LOX IMVI = system: LOX IMVI
SK-MEL-2 = system: SK-MEL-2
SW-620 = system: SW-620
CAKI-1 = system: CAKI-1
NCI-H226 = system: NCI-H226
TK-10 = system: TK-10
SNB-19 = system: SNB-19
MDA-MB-435 = system: MDA-MB-435
Hs-578T = system: Hs-578T

Compound	GI50 (UO-31)	GI50 (Malme-3M)	GI50 (COLO 205)	GI50 (ACHN)	GI50 (SK-MEL-28)	GI50 (HOP-18)	GI50 (786-0)	GI50 (RPMI-8226)	GI50 (A549)	GI50 (SN12C)	GI50 (A498)	GI50 (LOX IMVI)	GI50 (SK-MEL-2)	GI50 (SW-620)	GI50 (CAKI-1)	GI50 (NCI-H226)	GI50 (TK-10)	GI50 (SNB-19)	GI50 (MDA-MB-435)	GI50 (Hs-578T)
O=S(=O)(c1ccccc1)n1cnc(CCc2ccccc2)n1	> 100 µM (inactive)	> 100 µM (inactive)	> 100 µM (inactive)	> 100 µM (inactive)	> 100 µM (inactive)	> 100 µM (inactive)	> 100 µM (inactive)	> 100 µM (inactive)	> 100 µM (inactive)	> 100 µM (inactive)	> 100 µM (inactive)	> 100 µM (inactive)	> 100 µM (inactive)	> 100 µM (inactive)	> 100 µM (inactive)	> 100 µM (inactive)	> 100 µM (inactive)	–	–	–
COC1=CC(=O)c2c(cc3c(c2O)-c2c(OC)cc4cc5c(c(O)c4c2OC(=O)CC(C)(O)C3)C(=O)CC(C)(O)C5)C1=O (stereo not drawn)	1.73 µM (inactive)	1.82 µM (inactive)	1.57 µM (inactive)	2.64 µM (inactive)	1.32 µM (inactive)	1.3 µM (inactive)	2.65 µM (inactive)	1.32 µM (inactive)	2.68 µM (inactive)	1.8 µM (inactive)	2.48 µM (inactive)	1.22 µM (inactive)	1.28 µM (inactive)	2.37 µM (inactive)	2.23 µM (inactive)	1.84 µM (inactive)	3.85 µM (inactive)	1.71 µM (inactive)	–	–
Cc1ccc(S(=O)(=O)SC(C)(C)C)cc1	> 100 µM (inactive)	> 44.4 µM (inactive)	47.6 µM (inactive)	38.5 µM (inactive)	48.4 µM (inactive)	> 100 µM (inactive)	16.9 µM (inactive)	15.3 µM (inactive)	> 100 µM (inactive)	38.9 µM (inactive)	> 100 µM (inactive)	21.9 µM (inactive)	33.2 µM (inactive)	22.2 µM (inactive)	22.2 µM (inactive)	> 86.7 µM (inactive)	40.3 µM (inactive)	> 100 µM (inactive)	31.4 µM (inactive)	34.2 µM (inactive)
CNC(=O)ON(C(C)=O)C(=O)NC [CARACEMIDE]	54.3 µM (inactive)	44.1 µM (inactive)	–	18.7 µM (inactive)	69.5 µM (inactive)	97.7 µM (inactive)	11 µM (inactive)	–	92.3 µM (inactive)	58.9 µM (inactive)	87.7 µM (inactive)	33.7 µM (inactive)	26 µM (inactive)	52 µM (inactive)	55.2 µM (inactive)	95.1 µM (inactive)	25.5 µM (inactive)	157 µM (inactive)	15.3 µM (inactive)	–
Cc1cc(=O)cc2sc3cc(Cl)ccc3nc1-2	13.7 µM (inactive)	11.5 µM (inactive)	22.3 µM (inactive)	6.04 µM (inactive)	17.8 µM (inactive)	48.1 µM (inactive)	12 µM (inactive)	5.87 µM (inactive)	4.49 µM (inactive)	7.45 µM (inactive)	19.9 µM (inactive)	11.9 µM (inactive)	7.01 µM (inactive)	6.9 µM (inactive)	19.7 µM (inactive)	25.4 µM (inactive)	25.4 µM (inactive)	5.93 µM (inactive)	–	–
Cc1ccc(C(=O)/C=C/c2cccc([N+](=O)[O-])c2)cc1	46.9 µM (inactive)	> 100 µM (inactive)	> 40.7 µM (inactive)	> 100 µM (inactive)	> 100 µM (inactive)	> 100 µM (inactive)	28.4 µM (inactive)	26.6 µM (inactive)	> 100 µM (inactive)	> 56.4 µM (inactive)	98.2 µM (inactive)	66.4 µM (inactive)	> 100 µM (inactive)	21.6 µM (inactive)	> 92 µM (inactive)	> 58.7 µM (inactive)	> 100 µM (inactive)	60.1 µM (inactive)	–	–
CC1=Nc2c(O)nc(S)nc2NC(c2c(Cl)cccc2Cl)C1 (stereo not drawn)	5.19 µM (inactive)	6.11 µM (inactive)	1.87 µM (inactive)	4.86 µM (inactive)	2.73 µM (inactive)	15.2 µM (inactive)	0.902 µM (active)	0.583 µM (active)	3.43 µM (inactive)	1.42 µM (inactive)	1.67 µM (inactive)	0.766 µM (active)	18 µM (inactive)	0.971 µM (active)	5.51 µM (inactive)	5.21 µM (inactive)	10.1 µM (inactive)	2.99 µM (inactive)	1.49 µM (inactive)	0.589 µM (active)
